From patent publication US5004612A, “Pharmaceutical compositions comprising esters or amides as active ingredients” (priority 1987, dated 1991)
Where two headings read alike, the source gives them in different places.

Columns and labels:
in vivo [1] = experiment: in vivo; set-up: species or system male Sprague-Dawley rats; conditions: rat, BA
Procedure: (§1) The experiment was carried out according to the Yasuhara's method using intestinal loop in rats [see Journal of Pharmacobio-Dynamics, 2, 251 (1979)]. That is, male Sprague-Dawley rats weighing 220-260 g were fasted an overnight prior to surgery; however drinking water was readily accessible. The rats were anesthetized by sodium pentobarbital using an intraperitoneal injection of 50 mg/kg. The small intestine was exposed by a midline abdominal incision. The intestinal loop studied was used approximately 15 cm of the duodenal-jejunal site that was approximately 2 cm off the outlet of bile duct.
The suspension or solution containing active ingredients was directly administered into the loop and the both ends of the loop were closed. […] The active ingredient and the degradation products in sample were determined with high pressure liquid chromatography. […]
When Experiment 1 was carried out by using Compound A and D, blood was collected after a given period of time (0, 15, 30, 60 and 120 minutes after). The concentration of the active ingredient in blood was determined with high pressure liquid chromatography, and Area Under the plasma concentration-time Curve (AUC) was calculated and then bioavailability (BA) was calculated according to the following formula by comparing with AUC in intravenous administration. […]

in vivo [2] = experiment: in vivo; set-up: species or system male Beagle dogs; conditions: dog, plasma, po, read-out: BA
Procedure: When Experiment 1 was carried out by using Compound A and D, blood was collected after a given period of time (0, 15, 30, 60 and 120 minutes after). The concentration of the active ingredient in blood was determined with high pressure liquid chromatography, and Area Under the plasma concentration-time Curve (AUC) was calculated and then bioavailability (BA) was calculated according to the following formula by comparing with AUC in intravenous administration. [formula] [AUCid]: AUC in intraduodenal administration [AUCiv]: AUC in intravenous administration
Each one soft capsule prepared in Reference Example 1, 2, 3, 4, 5 and 6 (used only a suspension of Example 2 (compound B) in Reference Example 4,5 and 6) was administered orally with 50 ml of water to six male Beagle dogs fasted an overnight (aged one to two and weighing 10±1 kg). By the same procedures as described in Experiment 2, the concentration of the active ingredient in blood, AUC, and then BA were calculated.
^1 Comparison: Compound A or Compound B (10 mg/5 ml) of water/kg
animal body weight) was orally administered.

in vivo [3] = experiment: in vivo; set-up: species or system male Sprague-Dawley rats; conditions: rat, 5 mg/0.5 ml/animal, read-out: Remaining ratio of the active ingredient in small intestine; for remaining at 5 min: 5 minutes after; for remaining at 0.25 h: 15 minutes after
Procedure: The inhibitory effect of MCG on the degradation of esters of guanidinobenzoic acid in small intestine
as §1
The suspension or solution containing active ingredients was directly administered into the loop and the both ends of the loop were closed. The experiment with Compound G and I was carried out further by adding pancreatic juice and bile of other rats into the loop by cannula. After a given period of time, the loop was cut out. The contents were washed out with physiological salt solution and/or ethanol, and thereto was added a mixture of 0.1N aqueous methanesulfonic acid, 1,2-dichloroethane and isopropanol. The obtained mixture was centrifuged and the resulting supernatant was used as a sample. In the case of Compound D to H, the washings were directly used as a sample. The active ingredient and the degradation products in sample were determined with high pressure liquid chromatography.
Compound A: p-(p-guanidinobenzoyloxy)phenylacetic acid N,N-dimethylcarbamoylmethyl ester methanesulfonate [drawing 2] Compound B: p-guanidinobenzoic acid 6-amidinonaphth-2-yl ester dimethanesulfonate [drawing 3] Compound C: p-guanidinobenzoic acid methyl ester methanesulfonate [drawing 4] Compound D: 7-(3-tosylaminobicyclo[2.2.1]heptan-2-yl)-5Z-heptenoic acid ethyl ester [drawing 5] Compound E: salicylic acid ethyl ester [drawing 6] Compound F: aspirin [drawing 7] Compound G: 6-keto-16S,18S-ethano-20-ethyl-PGE1 leucine amide [drawing 8] Compound H: N-[3-[N-(4-chlorobenzyl)carbamoyl]propanoyl]-L-prolinal [drawing 9] Compound I: 7-(3-tosylaminobicyclo[2.2.1]heptan-2-yl)-5Z-heptenoic acid glycine amide [drawing 10] (wherein G is a guanidino group.)
H2 O: dissolving in the ratio of 5 mg of active ingredient/0.5 ml of water/animal.
MCM8(glyceryl monocaprylate): suspending in the ratio of 5 mg of active ingredient/0.5 ml of MCM8/animal.
MCT8(glyceryl tricaprylate): suspending in the ratio of 5 mg of active ingredient/0.5 ml of MCT8/animal.
2. 0.5 ml of physiological salt solution (referred to "SALT") for Compound D instead of water, because of its water-insoluble character.
3. 0.1 mg of Compound G were used because of its strong pharmacological effect, and isotonic phosphate buffer solution (referred to "PHOS") (pH 6.5) instead of water was used because of its water-insoluble character.

[4] = Water solubility (remark on administration); format: physicochemical

CN(C)C(=O)COC(=O)Cc1ccc(OC(=O)c2ccc(NC(=N)N)cc2)cc1.CS(=O)(=O)O [Compound A, p-(p-guanidinobenzoyloxy)phenylacetic acid N,N-dimethylcarbamoylmethyl ester methanesulfonate]
bioavailability (in vivo [1]): 3%
bioavailability (in vivo [2]; 10 mg/kg, Comparison A (10 mg/5 ml of water/kg body weight)): 6.3 ± 2.4%
bioavailability (in vivo [2]; Reference Example 1 (soft capsule of Example 1 suspension)): 10.9 ± 4.3%
bioavailability (in vivo [2]; Reference Example 2 (enteric-coated soft capsule, carboxymethylethyl cellulose)): 18.4 ± 7.3%
bioavailability (in vivo [2]; Reference Example 3 (enteric-coated soft capsule, hydroxypropylmethyl cellulose acetate succinate)): 17.2 ± 11.5%

CS(=O)(=O)O.CS(=O)(=O)O.N=C(N)Nc1ccc(C(=O)Oc2ccc3cc(C(=N)N)ccc3c2)cc1 [Compound B, p-guanidinobenzoic acid 6-amidinonaphth-2-yl ester dimethanesulfonate]
remaining at 5 min (in vivo [3]; H2O (COMPARISON)): 68.8 ± 1.7%
remaining at 0.25 h (in vivo [3]; H2O (COMPARISON)): 27.5 ± 5.2%
remaining at 5 min (in vivo [3]; MCM8 (INVENTION)): 90 ± 15.6%
remaining at 0.25 h (in vivo [3]; MCM8 (INVENTION)): 70.5 ± 12.1%
remaining at 5 min (in vivo [3]; MCT8 (INVENTION)): 80 ± 3.2%
remaining at 0.25 h (in vivo [3]; MCT8 (INVENTION)): 60.8 ± 7.5%
bioavailability (in vivo [2]; 10 mg/kg, Comparison B (10 mg/5 ml of water/kg body weight)): 1.7 ± 1.2%
bioavailability (in vivo [2]; Reference Example 4 (soft capsule of Example 2 suspension)): 3.2 ± 1.7%
bioavailability (in vivo [2]; Reference Example 5 (enteric-coated soft capsule, as Reference Example 2)): 5 ± 2.5%
bioavailability (in vivo [2]; Reference Example 6 (enteric-coated soft capsule, as Reference Example 3)): 5.1 ± 2.1%

COC(=O)c1ccc(NC(=N)N)cc1.CS(=O)(=O)O [Compound C, p-guanidinobenzoic acid methyl ester methanesulfonate]
solubility in water [4]: poor solubility

CCOC(=O)CCC/C=C\CC1C2CCC(C2)C1NS(=O)(=O)c1ccc(C)cc1 (stereo not drawn) [Compound D, 7-(3-tosylaminobicyclo[2.2.1]heptan-2-yl)-5Z-heptenoic acid ethyl ester]
solubility in water [4]: water-insoluble

CCCC[C@H]1CC[C@H]([C@H](O)/C=C/[C@H]2[C@H](O)CC(=O)[C@@H]2CC(=O)CCCCC(=O)NC(CC(C)C)C(=O)O)C1 (stereo partly drawn) [Compound G, 6-keto-16S,18S-ethano-20-ethyl-PGE1 leucine amide]
solubility in water [4]: water-insoluble
